Several values for one entry are separate records, joined by “and”; a condition that tells them apart may be missing. Equal values may be shown once. Entries after “also recorded” stand apart in the source; their conditions may differ.
Columns and labels:
[1] = system: 18 kDa translocator protein (TSPO); assay: PET imaging of [^18F]SF51 in rhesus monkey brain with kinetic analysis (2TCM, Logan plot, Lassen plot); type: in vivo; conditions: for Estimated K1: three rhesus monkeys; for VT/fP using Logan plot: n=3
Description: Electrocardiogram, body temperature, heart rate, and respiratory rate measures were monitored throughout the scan.
Brain PET imaging was performed using a microPET Focus 220 camera (Siemens Medical Solution; Knoxville, TN). […] For baseline experiments, 20 mL of a vehicle containing 20% (2-hydroxypropyl)-β-cyclodextrin and two equivalents of HCl were injected intravenously 10 min before radioligand administration. For the blocked experiment, PK11195 was dissolved in vehicle and then injected intravenously (5 mg/kg) 10 min before radioligand injection for all three monkeys. One of the three monkeys underwent an additional blocked scan with 5 mg/kg of PBR28, performed using a MultiScan™ LFER 150 PET/CT (Mediso USA, LLC; Arlington, VA). The interval between baseline and blocked imaging sessions was at least three weeks in order to allow the monkey to recover from arterial blood sampling. Focus 220 PET images were histogrammed into 30 time frames (6 × 30, 3 × 60, 2 × 120, 4 × 300, and 15 × 600 s) and reconstructed using Fourier rebinning plus a two-dimensional filtered back-projection with scatter and attenuation correction. MultiScan LFER PET images were reconstructed with 3D-OSEM with two iterations and nine subsets and were corrected for scatter and attenuation.
PET images were co-registered to a standardized monkey MRI template using PMOD software (PMOD version 4.1, PMOD Technologies Ltd.; Zurich, Switzerland). Thirty-three predefined regions of interest (ROIs) from a monkey brain template were applied to the co-registered PET images to obtain regional time-activity curves (Supplementary Table S2). Brain uptake was expressed as standardized uptake value (SUV), which normalizes for injected radioactivity and body weight. Using the brain time-activity curves and the radiometabolite-corrected arterial input function, the total VT was derived from a two-tissue compartment model (2TCM). Receptor occupancy by PK11195 and nondisplaceable distribution volume (VND/fP) of [^18F]SF51 were determined by an axes-transformed Lassen plot, where the y-axis reports the difference in VT between the baseline and the blocked scans, corrected by the respective fp values, and the x-axis reports the values at baseline (VTbase/fPbase).

[2] = Ex vivo radioanalysis of mouse brain and plasma 120 min after injection; type: in vivo, mice
Description: An ex vivo experiment was performed in another mouse 120 min after [^18F]SF51 injection. Anticoagulated blood was withdrawn from the myocardium, and the brain was extracted. The harvested brain was weighed and immediately underwent radioanalysis. The plasma was separated by centrifugation, and the radioactivity in both whole blood and plasma was measured as previously described.

VT/fP ([1]; Baseline, Amygdala, 2TCM, n = 3): 242 mL·cm^−3
Estimated K1 ([1]; Baseline, Amygdala, 2TCM): 0.29 mL·cm^-3·min^-1
VT/fP using Logan plot ([1]; Baseline, Amygdala): 229 mL·cm^-3
VT/fP ([1]; Baseline, Amygdala, one monkey (PBR28 experiment)): 284 mL·cm^-3
VT/fP ([1]; Baseline, Cerebellum, 2TCM, n = 3): 179 mL·cm^−3
Estimated K1 ([1]; Baseline, Cerebellum, 2TCM): 0.34 mL·cm^-3·min^-1
VT/fP using Logan plot ([1]; Baseline, Cerebellum): 172 mL·cm^-3
VT/fP ([1]; Baseline, Cerebellum, one monkey (PBR28 experiment)): 208 mL·cm^-3
VT/fP ([1]; Baseline, Cingulate Cortex, 2TCM, n = 3): 218 mL·cm^−3
Estimated K1 ([1]; Baseline, Cingulate Cortex, 2TCM): 0.30 mL·cm^-3·min^-1
VT/fP using Logan plot ([1]; Baseline, Cingulate Cortex): 208 mL·cm^-3
VT/fP ([1]; Baseline, Cingulate Cortex, one monkey (PBR28 experiment)): 260 mL·cm^-3
VT/fP ([1]; Baseline, Frontal Cortex, 2TCM, n = 3): 201 mL·cm^−3
Estimated K1 ([1]; Baseline, Frontal Cortex, 2TCM): 0.30 mL·cm^-3·min^-1
VT/fP using Logan plot ([1]; Baseline, Frontal Cortex): 192 mL·cm^-3
VT/fP ([1]; Baseline, Frontal Cortex, one monkey (PBR28 experiment)): 241 mL·cm^-3
VT/fP ([1]; Baseline, Hippocampus, 2TCM, n = 3): 220 mL·cm^−3
Estimated K1 ([1]; Baseline, Hippocampus, 2TCM): 0.33 mL·cm^-3·min^-1
VT/fP using Logan plot ([1]; Baseline, Hippocampus): 211 mL·cm^-3
VT/fP ([1]; Baseline, Hippocampus, one monkey (PBR28 experiment)): 253 mL·cm^-3
VT/fP ([1]; Baseline, Insula, 2TCM, n = 3): 224 mL·cm^−3
Estimated K1 ([1]; Baseline, Insula, 2TCM): 0.35 mL·cm^-3·min^-1
VT/fP using Logan plot ([1]; Baseline, Insula): 214 mL·cm^-3
VT/fP ([1]; Baseline, Insula, one monkey (PBR28 experiment)): 264 mL·cm^-3
VT/fP ([1]; Baseline, Occipital Cortex, 2TCM, n = 3): 183 mL·cm^−3
Estimated K1 ([1]; Baseline, Occipital Cortex, 2TCM): 0.31 mL·cm^-3·min^-1
VT/fP using Logan plot ([1]; Baseline, Occipital Cortex): 175 mL·cm^-3
VT/fP ([1]; Baseline, Occipital Cortex, one monkey (PBR28 experiment)): 217 mL·cm^-3
VT/fP ([1]; Baseline, Parietal Cortex, 2TCM, n = 3): 202 mL·cm^−3
Estimated K1 ([1]; Baseline, Parietal Cortex, 2TCM): 0.30 mL·cm^-3·min^-1
VT/fP using Logan plot ([1]; Baseline, Parietal Cortex): 193 mL·cm^-3
VT/fP ([1]; Baseline, Parietal Cortex, one monkey (PBR28 experiment)): 246 mL·cm^-3
VT/fP ([1]; Baseline, Striatum, 2TCM, n = 3): 225 mL·cm^−3
Estimated K1 ([1]; Baseline, Striatum, 2TCM): 0.38 mL·cm^-3·min^-1
VT/fP using Logan plot ([1]; Baseline, Striatum): 215 mL·cm^-3
VT/fP ([1]; Baseline, Striatum, one monkey (PBR28 experiment)): 266 mL·cm^-3
VT/fP ([1]; Baseline, Temporal Cortex, 2TCM, n = 3): 209 mL·cm^−3
Estimated K1 ([1]; Baseline, Temporal Cortex, 2TCM): 0.30 mL·cm^-3·min^-1
VT/fP using Logan plot ([1]; Baseline, Temporal Cortex): 201 mL·cm^-3
VT/fP ([1]; Baseline, Temporal Cortex, one monkey (PBR28 experiment)): 241 mL·cm^-3
VT/fP ([1]; Baseline, Thalamus, 2TCM, n = 3): 218 mL·cm^−3
Estimated K1 ([1]; Baseline, Thalamus, 2TCM): 0.35 mL·cm^-3·min^-1
VT/fP using Logan plot ([1]; Baseline, Thalamus): 208 mL·cm^-3
VT/fP ([1]; Baseline, Thalamus, one monkey (PBR28 experiment)): 259 mL·cm^-3
VT/fP ([1]; Baseline, Whole Brain, 2TCM, n = 3): 203 ± 15 mL·cm^−3 and 203 mL·cm^−3
Estimated K1 ([1]; Baseline, Whole Brain, 2TCM): 0.31 mL·cm^-3·min^-1
VT/fP using Logan plot ([1]; Baseline, Whole Brain): 194 mL·cm^-3
VT/fP ([1]; Baseline, Whole Brain, one monkey (PBR28 experiment)): 240 mL·cm^-3
VT/fP ([1]; Blocked (PK11195 5 mg/kg i.v.), Amygdala, 2TCM, n = 3): 23 mL·cm^−3
VT/fP ([1]; Blocked (PK11195 5 mg/kg i.v.), Cerebellum, 2TCM, n = 3): 26 mL·cm^−3
VT/fP ([1]; Blocked (PK11195 5 mg/kg i.v.), Cingulate Cortex, 2TCM, n = 3): 25 mL·cm^−3
VT/fP ([1]; Blocked (PK11195 5 mg/kg i.v.), Frontal Cortex, 2TCM, n = 3): 26 mL·cm^−3
VT/fP ([1]; Blocked (PK11195 5 mg/kg i.v.), Hippocampus, 2TCM, n = 3): 21 mL·cm^−3
VT/fP ([1]; Blocked (PK11195 5 mg/kg i.v.), Insula, 2TCM, n = 3): 23 mL·cm^−3
VT/fP ([1]; Blocked (PK11195 5 mg/kg i.v.), Occipital Cortex, 2TCM, n = 3): 23 mL·cm^−3
VT/fP ([1]; Blocked (PK11195 5 mg/kg i.v.), Parietal Cortex, 2TCM, n = 3): 24 mL·cm^−3
VT/fP ([1]; Blocked (PK11195 5 mg/kg i.v.), Striatum, 2TCM, n = 3): 26 mL·cm^−3
VT/fP ([1]; Blocked (PK11195 5 mg/kg i.v.), Temporal Cortex, 2TCM, n = 3): 22 mL·cm^−3
VT/fP ([1]; Blocked (PK11195 5 mg/kg i.v.), Thalamus, 2TCM, n = 3): 27 mL·cm^−3
VT/fP ([1]; Blocked (PK11195 5 mg/kg i.v.), Whole Brain, 2TCM, n = 3): 24 mL·cm^−3
Estimated K1 ([1]; Blocked (PK11195), Amygdala, 2TCM): 0.38 mL·cm^-3·min^-1
VT/fP using Logan plot ([1]; Blocked (PK11195), Amygdala): 23 mL·cm^-3
Estimated K1 ([1]; Blocked (PK11195), Cerebellum, 2TCM): 0.62 mL·cm^-3·min^-1
VT/fP using Logan plot ([1]; Blocked (PK11195), Cerebellum): 25 mL·cm^-3
Estimated K1 ([1]; Blocked (PK11195), Cingulate Cortex, 2TCM): 0.34 mL·cm^-3·min^-1
VT/fP using Logan plot ([1]; Blocked (PK11195), Cingulate Cortex): 24 mL·cm^-3
Estimated K1 ([1]; Blocked (PK11195), Frontal Cortex, 2TCM): 0.36 mL·cm^-3·min^-1
VT/fP using Logan plot ([1]; Blocked (PK11195), Frontal Cortex): 25 mL·cm^-3
Estimated K1 ([1]; Blocked (PK11195), Hippocampus, 2TCM): 0.48 mL·cm^-3·min^-1
VT/fP using Logan plot ([1]; Blocked (PK11195), Hippocampus): 21 mL·cm^-3
Estimated K1 ([1]; Blocked (PK11195), Insula, 2TCM): 0.37 mL·cm^-3·min^-1
VT/fP using Logan plot ([1]; Blocked (PK11195), Insula): 23 mL·cm^-3
Estimated K1 ([1]; Blocked (PK11195), Occipital Cortex, 2TCM): 0.40 mL·cm^-3·min^-1
VT/fP using Logan plot ([1]; Blocked (PK11195), Occipital Cortex): 22 mL·cm^-3
Estimated K1 ([1]; Blocked (PK11195), Parietal Cortex, 2TCM): 0.35 mL·cm^-3·min^-1
VT/fP using Logan plot ([1]; Blocked (PK11195), Parietal Cortex): 23 mL·cm^-3
Estimated K1 ([1]; Blocked (PK11195), Striatum, 2TCM): 0.65 mL·cm^-3·min^-1
VT/fP using Logan plot ([1]; Blocked (PK11195), Striatum): 25 mL·cm^-3
Estimated K1 ([1]; Blocked (PK11195), Temporal Cortex, 2TCM): 0.36 mL·cm^-3·min^-1
VT/fP using Logan plot ([1]; Blocked (PK11195), Temporal Cortex): 22 mL·cm^-3
Estimated K1 ([1]; Blocked (PK11195), Thalamus, 2TCM): 0.50 mL·cm^-3·min^-1
VT/fP using Logan plot ([1]; Blocked (PK11195), Thalamus): 26 mL·cm^-3
Estimated K1 ([1]; Blocked (PK11195), Whole Brain, 2TCM): 0.41 mL·cm^-3·min^-1
VT/fP using Logan plot ([1]; Blocked (PK11195), Whole Brain): 24 mL·cm^-3
VT/fP ([1]; Blocked, PBR28 pre-blockade (5 mg/kg), Amygdala, one monkey): 9 mL·cm^-3
VT/fP ([1]; Blocked, PBR28 pre-blockade (5 mg/kg), Cerebellum, one monkey): 10 mL·cm^-3
VT/fP ([1]; Blocked, PBR28 pre-blockade (5 mg/kg), Cingulate Cortex, one monkey): 10 mL·cm^-3
VT/fP ([1]; Blocked, PBR28 pre-blockade (5 mg/kg), Frontal Cortex, one monkey): 10 mL·cm^-3
VT/fP ([1]; Blocked, PBR28 pre-blockade (5 mg/kg), Hippocampus, one monkey): 9 mL·cm^-3
VT/fP ([1]; Blocked, PBR28 pre-blockade (5 mg/kg), Insula, one monkey): 10 mL·cm^-3
VT/fP ([1]; Blocked, PBR28 pre-blockade (5 mg/kg), Occipital Cortex, one monkey): 10 mL·cm^-3
VT/fP ([1]; Blocked, PBR28 pre-blockade (5 mg/kg), Parietal Cortex, one monkey): 10 mL·cm^-3
VT/fP ([1]; Blocked, PBR28 pre-blockade (5 mg/kg), Striatum, one monkey): 10 mL·cm^-3
VT/fP ([1]; Blocked, PBR28 pre-blockade (5 mg/kg), Temporal Cortex, one monkey): 9 mL·cm^-3
VT/fP ([1]; Blocked, PBR28 pre-blockade (5 mg/kg), Thalamus, one monkey): 12 mL·cm^-3
VT/fP ([1]; Blocked, PBR28 pre-blockade (5 mg/kg), Whole Brain, one monkey): 10 mL·cm^-3
VND/fP (x-intercept of the regression lines) ([1]; Lassen plot, monkey brain, n = 3): 27 ± 11 mL· cm^−3
Increase of K1 in blocked scans compared to baseline scans ([1]; all regions, PK11195): about 30%
x-intercept of Lassen plot (VND/fP) ([1]; mean ± SD, n = 3): 27 ± 11
Mean SUV peak in brain after pre-blockade ([1]; monkey brain, after 5 mg/kg PK11195, n = 3): 3.0 ± 0.5 SUV
Brain activity relative to the peak ([1]; monkey brain, baseline, at 180 min): 30 % of the peak
Brain activity relative to the peak ([1]; monkey brain, baseline, by 110 min): 50 % of the peak
Peak concentration of brain radioactivity (mean SUV peak) ([1]; monkey whole brain, baseline, n = 3): 2.0 SUV and 2.0 ± 0.1 SUV
Parent radioligand as share of radioactivity in plasma [2]: 9.1%
Parent radioligand as share of radioactivity in the brain [2]: 96% and 96.4%
SMILES: CC[C@@H](C)N(C)C(=O)c1nc(-c2cccc([18F])c2)c2ccccc2n1 [[^18F]SF51]
Decrease of VT/fP (binding displaced) after blockade with PK11195 ([1]; monkey brain, PK11195 5 mg/kg i.v.): ~ 90%
Uptake in the skull ([1]; monkey, baseline, blocked by PK11195 and PBR28): No significant uptake; also recorded: low uptake
BPND of whole brain ([1]; monkey, ratio of specific binding to nondisplaceable uptake, n = 3): 7.6 ± 4.3 and 7.6

Reference: publication PMC10382351, “In vivo evaluation of a novel ^18F-labeled PET radioligand for translocator protein 18 kDa (TSPO) in monkey brain” (European Journal of Nuclear Medicine and Molecular Imaging, 2023)
